# Measured values reported in patent publication US20160008419A1, “Methods and Compositions for the Prevention and Treatment of Parasitic Disease” (THE BOARD OF TRUSTEES OF THE LELAND STANFORD JUNIOR …, priority 2013, published 2016).
# “Also recorded” adds a separate entry of the source. Like-named read-outs stand apart in the source and are kept apart here.
# Legend:
# P. falciparum [1] = conditions: cited from earlier work
# [2] = after drinking alcohol; cited from earlier work
# P. falciparum [3] = assay: Parasitemia in P. falciparum infected human red blood cells treated with acetaldehyde; assay type: cell-based, Plasmodium falciparum; conditions: acetaldehyde μM range (low levels); Geimsa stain and flow cytometry; preliminary data
# Description: Parasitemia counts were determined by Geimsa stain and FACS.
# […] Exp. Res., 22: 1161-1164). […] Further, μM concentrations of 4HNE are also very common under conditions of infection, inflammation or fever (e.g. during the chill-fever cycles of malaria).
# [4] = 2.5 alcoholic drinks (0.5 g/kg body weight), cited from earlier work
# P. berghei = conditions: wild type mice; expected
# Description: In this model, infections with P. berghei ANKA and NK65 strains yield highly reproducible peripheral parasitemias and gametocytemias that are infectious to An. stephensi. […] The ALDH2*2 mouse is on a C57/BL6 background, a mouse strain that is the most susceptible among common mouse strains to hepatic infection with P. berghei (Scheller L. F., et al. Susceptibility of different strains of mice to hepatic infection with Plasmodium berghei. Infect Immun. 1994; 62(11):4844-7). […] On the day of infection, mice in each of the experimental groups are infected by bite of An. stephensi (5-10 mosquitoes/mouse).
# During P. berghei infection, liver stages and accompanying pathology are evident by 39 hr post-infection (Scheller L. F., et al. Susceptibility of different strains of mice to hepatic infection with Plasmodium berghei. Infect Immun. 1994; 62(11):4844-7), peripheral parasitemia is evident by 4-5 days post-infection, and gametocytemia rises with peripheral parasitemia to become infectious to An. stephensi. Based on these parameters, mice that are not sacrificed within 39-48 hrs post-infection to assess liver stage parasites and pathology are examined daily for peripheral parasitemia beginning at 3 days post-infection.
# [5] = expected
# [6] = system: parasites in human RBC culture; assay: Parasite growth (parasitemia) in human RBC culture with ALDH inhibitor; assay type: cell-based
# Description: FIG. 8 depicts the effect of ALDH inhibitor, disulfiram, on parasitemia in RBC. Parasitemia were determined 24 and 72 hours after the addition of disulfiram at the indicated concentrations.
# Disulfirm and diadzin are used as deterrents for treatment of alcoholism, and as such, are both safe and effective ALDH2 inhibitors. […] As a negative control, pyrazole, an alcohol dehydrogenase inhibitor, at a concentration as high as 500 μM has no effect on the growth of parasites.
compound,measurement,setting,value
"CCCCCC(O)C=CC=O (stereo not drawn) [4HNE, 4-Hydroxy-2-nonenal]",reduction of growth of P. falciparum relative to controls,P. falciparum [1]; 50-100 μM,50-100%
same,toxicity to malaria parasites in vitro,P. falciparum [1],toxic
CC=O [acetaldehyde],acetaldehyde concentration in human saliva,[2],≥ 450 µM
same,growth of P. falciparum / parasitemia in human RBCs,P. falciparum [3],inhibit growth; also recorded: reduces parasitemia
same,toxicity to malaria parasites in vitro,P. falciparum [1],toxic
same,blood acetaldehyde level,[4]; human ALDH2*2 heterozygotic subjects,60 µM
same,blood acetaldehyde level,[4]; subjects with wild type enzyme,~2 µM
CCO [ethanol],"parasite infection, histopathology, or transmission due to ethanol treatment",P. berghei,no significant differences
same,difference in blood acetaldehyde level between wild type and ALDH2*2 mutant animals,[5]; 1.5 to 4.0 g/kg acute ethanol administration,at least 5 fold
same,duration of the difference in blood acetaldehyde level,[5]; after single dose of ethanol,4 to 6 h
c1cn[nH]c1 [pyrazole],effect on the growth of parasites,"[6]; negative control, concentration as high as 500 μM",no effect
tetraethylthioperoxydicarbonic diamide [disulfiram],IC50,"[6]; human RBC culture, in the absence of alcohol, read-out: inhibition of parasite growth IC50",9.7 µM
